Experiments:
[1] = tested on: Plasma; assay: Fraction unbound in C57BL/6j mouse plasma; assay type: ADME, cell-free
[2] = Permeability in RRCK cells; assay type: ADME, cell-based, Canis lupus familiaris, MDCKII-LE; settings: dog, MDCK; read-out: permeability
[3] = Ratio of unbound AUC in brain to plasma in C57BL/6j mouse; assay type: ADME, organism-based; settings: read-out: Ratio AUC

Row | Structure (SMILES) | Cp(f) [1] | Papp [2] | Kp uu [3]
1 | O=C(N[C@H]1CCOC[C@@H]1O)c1cn(Cc2ccc(-n3cccn3)cc2)c2cccnc12 | 0.13 nM | 21.7 ×10⁻⁶ cm/s | 0.04
2 | O=C(N[C@H]1CCOC[C@@H]1O)c1cn(Cc2ccc(-c3cc[nH]n3)cc2)c2cccnc12 | – | 14 ×10⁻⁶ cm/s | –

Source: ChEMBL document CHEMBL3745675, “Design and optimization of selective azaindole amide M1 positive allosteric modulators” (Bioorg Med Chem Lett, 2016)
